Format in all cases: functional
Assay [1] deals with Rattus norvegicus. Put plainly: Tested for % inhibition in carrageenan-induced rat paw adema after peroral administration of 100 mg/kg dose at 2 hours. As to conditions: route oral.
Assay [2] deals with Rattus norvegicus. The experiment in a line: Tested for % inhibition in carrageenan-induced rat paw adema after intraperitoneal administration of 100 mg/kg dose at 2 hours. As to conditions: ip.
Assay [3] relates to Rattus norvegicus. The experiment in a line: Tested for % inhibition in carrageenan-induced rat paw adema after intraperitoneal administration of 100 mg/kg dose at 3.5 hours. As to conditions: ip.
Assay [4] has as its system Rattus norvegicus. The experiment in a line: Tested for % inhibition in carrageenan-induced rat paw adema after peroral administration of 100 mg/kg dose at 3.5 hours. As to conditions: route oral.

The structures appear in SMILES notation.

As for `c1ccc(-c2nnc(-c3nsc4ccccc34)s2)cc1`, the inhibition in vivo at 100 mg/kg in the assay on Rattus norvegicus [1] was 10%; with Rattus norvegicus [2], 21%; with Rattus norvegicus [3], 10%; in the assay on Rattus norvegicus [4] it was 22%.

As to `Sc1nnc(-c2nsc3ccccc23)n1-c1ccccc1`, the inhibition in vivo at 100 mg/kg with Rattus norvegicus [1] stood at 10%; with Rattus norvegicus [2] it was 81%; in the assay with Rattus norvegicus [3], 60%; in the assay on Rattus norvegicus [4], 10%.

In the case of `COc1ccc(Nc2nnc(-c3nsc4ccccc34)o2)cc1`, the inhibition in vivo at 100 mg/kg worked out at 28% with Rattus norvegicus [1], 59% in the assay with Rattus norvegicus [2], 50% with Rattus norvegicus [3] and 33% with Rattus norvegicus [4].

For the compound `CNc1nnc(-c2nsc3ccccc23)o1`, the inhibition in vivo at 100 mg/kg amounted to 10% in the assay with Rattus norvegicus [1], 67% in the assay with Rattus norvegicus [2], 60% in the assay on Rattus norvegicus [3] and 10% in the assay on Rattus norvegicus [4].

In the case of `c1ccc(-c2nnc(-c3nsc4ccccc34)o2)cc1`, the inhibition in vivo at 100 mg/kg turned out to be 60% in the assay with Rattus norvegicus [1], 60% with Rattus norvegicus [2], 48% in the assay on Rattus norvegicus [3] and 32% in the assay on Rattus norvegicus [4].

Turning to `CC(C)Cc1ccc(C(C)C(=O)O)cc1` (stereo not drawn) [IBUPROFEN], the inhibition in vivo at 100 mg/kg came to 62% in the assay with Rattus norvegicus [1], 70% with Rattus norvegicus [2], 74% with Rattus norvegicus [3] and 65% in the assay with Rattus norvegicus [4].

On to `Cc1nnc(-c2nsc3ccccc23)o1`, for which the inhibition in vivo at 100 mg/kg with Rattus norvegicus [1] turned out to be 43%; in the assay with Rattus norvegicus [2] it was 69%; with Rattus norvegicus [3], 42%; in the assay on Rattus norvegicus [4], 21%.

Take `c1ccc(Nc2nnc(-c3nsc4ccccc34)s2)cc1`: the inhibition in vivo at 100 mg/kg in the assay on Rattus norvegicus [1] was found to be 8%; in the assay on Rattus norvegicus [2], 62%; in the assay with Rattus norvegicus [3], 48%; with Rattus norvegicus [4] it was 10%.

For the compound `CCc1nnc(-c2nsc3ccccc23)s1`, the inhibition in vivo at 100 mg/kg with Rattus norvegicus [1] amounted to 10%; in the assay with Rattus norvegicus [2], 10%; with Rattus norvegicus [3], 10%; in the assay with Rattus norvegicus [4], 12%.

As to `CCNc1nnc(-c2nsc3ccccc23)o1`, the inhibition in vivo at 100 mg/kg in the assay on Rattus norvegicus [1] worked out at 53%; with Rattus norvegicus [2] it was 65%; in the assay with Rattus norvegicus [3], 42%; in the assay on Rattus norvegicus [4] it was 29%.

For `CCNc1nnc(-c2nsc3ccccc23)s1`, the inhibition in vivo at 100 mg/kg worked out at 34% with Rattus norvegicus [1], 59% with Rattus norvegicus [2], 50% in the assay with Rattus norvegicus [3] and 25% in the assay on Rattus norvegicus [4].

On to `Clc1ccc(Nc2nnc(-c3nsc4ccccc34)o2)cc1`, for which the inhibition in vivo at 100 mg/kg in the assay on Rattus norvegicus [1] came out at 14%; in the assay on Rattus norvegicus [2] it was 48%; in the assay on Rattus norvegicus [3] it was 40%; in the assay on Rattus norvegicus [4], 10%.

`Clc1ccc(-c2nnc(-c3nsc4ccccc34)o2)cc1`: the inhibition in vivo at 100 mg/kg in the assay with Rattus norvegicus [1] turned out to be 13%; in the assay on Rattus norvegicus [2], 50%; in the assay on Rattus norvegicus [3], 33%; in the assay with Rattus norvegicus [4], 24%.

For the compound `c1ccc(Nc2nnc(-c3nsc4ccccc34)o2)cc1`, the inhibition in vivo at 100 mg/kg is 56% in the assay with Rattus norvegicus [1], 67% in the assay on Rattus norvegicus [2], 48% in the assay with Rattus norvegicus [3] and 27% in the assay with Rattus norvegicus [4].

With `CCn1c(S)nnc1-c1nsc2ccccc12`, the inhibition in vivo at 100 mg/kg in the assay on Rattus norvegicus [1] was found to be 57%; with Rattus norvegicus [2], 64%; in the assay with Rattus norvegicus [3] it was 50%; in the assay with Rattus norvegicus [4] it was 32%.

As to `COc1ccc(-c2nnc(-c3nsc4ccccc34)o2)cc1`, the inhibition in vivo at 100 mg/kg in the assay with Rattus norvegicus [1] came to 21%; in the assay on Rattus norvegicus [2], 45%; in the assay on Rattus norvegicus [3] it was 33%; in the assay with Rattus norvegicus [4] it was 29%.

Regarding `CCc1nnc(-c2nsc3ccccc23)o1`, the inhibition in vivo at 100 mg/kg came out at 10% with Rattus norvegicus [1], 10% in the assay on Rattus norvegicus [2], 10% in the assay on Rattus norvegicus [3] and 18% in the assay with Rattus norvegicus [4].
